Experimental data as given in ChEMBL document CHEMBL1201862, “PubChem BioAssay data set” (2004).
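1) Cells in 96-well plates. 2) Compound, 48 h, 5 concentrations. 3) Linear interpolation between surrounding doses. 4) Unreached endpoint = highest concentration. Abbreviation: GI50, concentration required for 50% inhibition of growth.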 Active and inactive are the calls of the source. Cut-off read from the data, not from the text of the source: active = GI50 up to about 1.1 µM and inactive = higher.

Columns and labels:
Experiment in all cases: DTP human tumour cell line panel, 48 h
786-0 = tested on: 786-0
A498 = tested on: A498
A549 = tested on: A549
ACHN = tested on: ACHN
CAKI-1 = tested on: CAKI-1
CCRF-CEM = tested on: CCRF-CEM
COLO 205 = tested on: COLO 205
DLD-1 = tested on: DLD-1
DMS-114 = tested on: DMS-114
DMS-273 = tested on: DMS-273
EKVX = tested on: EKVX
HCC 2998 = tested on: HCC 2998
HCT-116 = tested on: HCT-116
HCT-15 = tested on: HCT-15
HL-60 = tested on: HL-60
HOP-62 = tested on: HOP-62
HOP-92 = tested on: HOP-92
HT-29 = tested on: HT-29
IGROV-1 = tested on: IGROV-1
K562 = tested on: K562
KM-20L2 = tested on: KM-20L2
KM12 = tested on: KM12
LXFL 529 = tested on: LXFL 529
M14 = tested on: M14
M19-MEL = tested on: M19-MEL
MOLT-4 = tested on: MOLT-4
Malme-3M = tested on: Malme-3M
NCI-H226 = tested on: NCI-H226
NCI-H23 = tested on: NCI-H23
NCI-H460 = tested on: NCI-H460
NCI-H522 = tested on: NCI-H522
OVCAR-3 = tested on: OVCAR-3
OVCAR-4 = tested on: OVCAR-4
OVCAR-5 = tested on: OVCAR-5
OVCAR-8 = tested on: OVCAR-8
RPMI-8226 = tested on: RPMI-8226
RXF 393 = tested on: RXF 393
RXF 631 = tested on: RXF 631
SF-268 = tested on: SF-268
SF-295 = tested on: SF-295
SF-539 = tested on: SF-539
SK-MEL-28 = tested on: SK-MEL-28
SK-MEL-2 = tested on: SK-MEL-2
SK-OV-3 = tested on: SK-OV-3
SN12C = tested on: SN12C
SNB-19 = tested on: SNB-19
SNB-75 = tested on: SNB-75
SNB-78 = tested on: SNB-78
SR = tested on: SR
SW-620 = tested on: SW-620
TK-10 = tested on: TK-10
U-251 = tested on: U-251
UACC-257 = tested on: UACC-257
UACC-62 = tested on: UACC-62
UO-31 = tested on: UO-31
HOP-18 = tested on: HOP-18
SK-MEL-5 = tested on: SK-MEL-5
LOX IMVI = tested on: LOX IMVI

In the case of `CCOc1ccc(NC(=O)/C(CC(=O)c2c[n+]([O-])c3ccccc3[n+]2[O-])=N\OCCCc2ccccc2)cc1`, the GI50 (786-0) is reported as > 100 µM (inactive), the GI50 (A498) is reported as > 100 µM (inactive) and the GI50 (A549) is reported as > 100 µM (inactive). For the same compound, the GI50 (ACHN) was > 100 µM (inactive), the GI50 (CAKI-1) was > 100 µM (inactive) and the GI50 (CCRF-CEM) was 42.2 µM (inactive). For the same compound, the GI50 (COLO 205) was > 100 µM (inactive), the GI50 (DLD-1) was > 100 µM (inactive) and the GI50 (DMS-114) was > 100 µM (inactive). For the same compound, the GI50 (DMS-273) was > 100 µM (inactive), the GI50 (EKVX) was > 100 µM (inactive) and the GI50 (HCC 2998) was > 100 µM (inactive). For the same compound, the GI50 (HCT-116) was > 100 µM (inactive), the GI50 (HCT-15) was greater than 100 µM and the GI50 (HL-60) was > 100 µM (inactive). The GI50 (HOP-62) was > 100 µM (inactive), the GI50 (HOP-92) was 16.9 µM (inactive) and the GI50 (HT-29) was > 100 µM (inactive). The GI50 (IGROV-1) was > 100 µM (inactive), the GI50 (K562) was 62.5 µM (inactive) and the GI50 (KM-20L2) was > 100 µM (inactive). For the same compound, the GI50 (KM12) was > 100 µM (inactive), the GI50 (LXFL 529) was > 100 µM (inactive) and the GI50 (M14) was > 100 µM (inactive). The GI50 (M19-MEL) was > 100 µM (inactive), the GI50 (MOLT-4) was > 100 µM (inactive) and the GI50 (Malme-3M) was > 100 µM (inactive). The GI50 (NCI-H226) was 44.9 µM (inactive), the GI50 (NCI-H23) was > 100 µM (inactive) and the GI50 (NCI-H460) was > 100 µM (inactive). For the same compound, the GI50 (NCI-H522) was > 100 µM (inactive), the GI50 (OVCAR-3) was > 100 µM (inactive) and the GI50 (OVCAR-4) was > 100 µM (inactive). The GI50 (OVCAR-5) was > 100 µM (inactive), the GI50 (OVCAR-8) was > 100 µM (inactive) and the GI50 (RPMI-8226) was > 100 µM (inactive). The GI50 (RXF 393) was > 100 µM (inactive), the GI50 (RXF 631) was > 100 µM (inactive) and the GI50 (SF-268) was > 100 µM (inactive). The GI50 (SF-295) was > 100 µM (inactive), the GI50 (SF-539) was > 100 µM (inactive) and the GI50 (SK-MEL-28) was > 100 µM (inactive). For the same compound, the GI50 (SK-MEL-2) was > 100 µM (inactive), the GI50 (SK-OV-3) was > 100 µM (inactive) and the GI50 (SN12C) was > 100 µM (inactive). For the same compound, the GI50 (SNB-19) was > 100 µM (inactive), the GI50 (SNB-75) was > 100 µM (inactive) and the GI50 (SNB-78) was > 100 µM (inactive). The GI50 (SR) was > 100 µM (inactive), the GI50 (SW-620) was > 100 µM (inactive) and the GI50 (TK-10) was > 100 µM (inactive). The GI50 (U-251) was > 100 µM (inactive), the GI50 (UACC-257) was > 100 µM (inactive) and the GI50 (UACC-62) was > 100 µM (inactive). The GI50 (UO-31) was > 100 µM (inactive).

`C/C=C/C=C/c1cc2cc3c(c(O)c2c(=O)[nH]1)C1(CC3)C(=O)c2c(O)c3c(c(O)c2C1=O)C(=O)C(OC)=CC3=O` (centres undefined) was tested, and the GI50 (DLD-1) was 0.552 µM (active), the GI50 (DMS-114) was 0.337 µM (active) and the GI50 (DMS-273) was 0.414 µM (active). For the same compound, the GI50 (HOP-18) was 0.615 µM (active), the GI50 (KM-20L2) was 1.08 µM (active) and the GI50 (LXFL 529) was 0.44 µM (active). The GI50 (M19-MEL) was 0.953 µM (active), the GI50 (RXF 631) was 13.2 µM (inactive) and the GI50 (SNB-78) was 4.11 µM (inactive).

For `C=CCC12CCC(=O)C=C1CCC1(C2)OCCO1` (centres undefined), the GI50 (786-0) was > 100 µM (inactive), the GI50 (A498) was > 100 µM (inactive) and the GI50 (A549) was > 100 µM (inactive). For the same compound, the GI50 (ACHN) was > 100 µM (inactive), the GI50 (CAKI-1) was > 100 µM (inactive) and the GI50 (CCRF-CEM) was 53.1 µM (inactive). The GI50 (COLO 205) was > 100 µM (inactive), the GI50 (DLD-1) was > 100 µM (inactive) and the GI50 (DMS-114) was > 100 µM (inactive). The GI50 (DMS-273) was > 100 µM (inactive), the GI50 (EKVX) was > 100 µM (inactive) and the GI50 (HCC 2998) was > 100 µM (inactive). For the same compound, the GI50 (HCT-116) was > 100 µM (inactive), the GI50 (HCT-15) was greater than 100 µM and the GI50 (HL-60) was 40.4 µM (inactive). The GI50 (HOP-18) was > 100 µM (inactive), the GI50 (HOP-62) was > 100 µM (inactive) and the GI50 (IGROV-1) was > 100 µM (inactive). The GI50 (K562) was 55.2 µM (inactive), the GI50 (KM-20L2) was > 100 µM (inactive) and the GI50 (KM12) was > 100 µM (inactive). The GI50 (LXFL 529) was > 100 µM (inactive), the GI50 (M14) was > 100 µM (inactive) and the GI50 (M19-MEL) was > 100 µM (inactive). The GI50 (MOLT-4) was > 100 µM (inactive), the GI50 (Malme-3M) was > 100 µM (inactive) and the GI50 (NCI-H226) was > 100 µM (inactive). The GI50 (NCI-H460) was > 100 µM (inactive), the GI50 (NCI-H522) was > 100 µM (inactive) and the GI50 (OVCAR-3) was > 100 µM (inactive). The GI50 (OVCAR-4) was > 100 µM (inactive), the GI50 (OVCAR-8) was > 100 µM (inactive) and the GI50 (RPMI-8226) was > 100 µM (inactive). For the same compound, the GI50 (RXF 393) was > 100 µM (inactive), the GI50 (RXF 631) was > 100 µM (inactive) and the GI50 (SF-268) was > 100 µM (inactive). For the same compound, the GI50 (SF-539) was > 100 µM (inactive), the GI50 (SK-MEL-28) was > 100 µM (inactive) and the GI50 (SK-MEL-2) was > 100 µM (inactive). The GI50 (SK-MEL-5) was > 100 µM (inactive), the GI50 (SK-OV-3) was > 100 µM (inactive) and the GI50 (SN12C) was > 100 µM (inactive). The GI50 (SNB-19) was > 100 µM (inactive), the GI50 (SNB-75) was > 100 µM (inactive) and the GI50 (SNB-78) was > 100 µM (inactive). The GI50 (SR) was > 100 µM (inactive), the GI50 (SW-620) was > 100 µM (inactive) and the GI50 (TK-10) was > 100 µM (inactive). The GI50 (U-251) was > 100 µM (inactive), the GI50 (UACC-257) was > 100 µM (inactive) and the GI50 (UACC-62) was > 100 µM (inactive). For the same compound, the GI50 (UO-31) was > 100 µM (inactive).

With `N#CC(C#N)c1ccc(C(=O)N2CCC[C@H]2CO)cc1` the GI50 (786-0) was > 100 µM (inactive), the GI50 (A549) was > 100 µM (inactive) and the GI50 (ACHN) was > 100 µM (inactive). For the same compound, the GI50 (CAKI-1) was > 100 µM (inactive), the GI50 (CCRF-CEM) was > 100 µM (inactive) and the GI50 (COLO 205) was > 100 µM (inactive). The GI50 (DLD-1) was > 100 µM (inactive), the GI50 (DMS-114) was > 100 µM (inactive) and the GI50 (DMS-273) was > 100 µM (inactive). For the same compound, the GI50 (EKVX) was > 100 µM (inactive), the GI50 (HCC 2998) was > 100 µM (inactive) and the GI50 (HCT-15) was greater than 100 µM. For the same compound, the GI50 (HL-60) was > 100 µM (inactive), the GI50 (HOP-18) was > 100 µM (inactive) and the GI50 (HOP-62) was > 100 µM (inactive). The GI50 (HOP-92) was 58.2 µM (inactive), the GI50 (HT-29) was > 100 µM (inactive) and the GI50 (IGROV-1) was > 100 µM (inactive). The GI50 (K562) was > 100 µM (inactive), the GI50 (KM-20L2) was > 100 µM (inactive) and the GI50 (KM12) was > 100 µM (inactive). The GI50 (LOX IMVI) was > 100 µM (inactive), the GI50 (LXFL 529) was > 100 µM (inactive) and the GI50 (M14) was > 100 µM (inactive). For the same compound, the GI50 (M19-MEL) was > 100 µM (inactive), the GI50 (MOLT-4) was > 100 µM (inactive) and the GI50 (Malme-3M) was > 100 µM (inactive). For the same compound, the GI50 (NCI-H23) was > 100 µM (inactive), the GI50 (NCI-H460) was > 100 µM (inactive) and the GI50 (NCI-H522) was > 100 µM (inactive). The GI50 (OVCAR-3) was > 100 µM (inactive), the GI50 (OVCAR-4) was > 100 µM (inactive) and the GI50 (OVCAR-5) was > 100 µM (inactive). The GI50 (OVCAR-8) was > 100 µM (inactive), the GI50 (RPMI-8226) was > 100 µM (inactive) and the GI50 (RXF 393) was > 100 µM (inactive). The GI50 (RXF 631) was > 100 µM (inactive), the GI50 (SF-268) was > 100 µM (inactive) and the GI50 (SF-295) was > 100 µM (inactive). For the same compound, the GI50 (SF-539) was > 100 µM (inactive), the GI50 (SK-MEL-28) was > 100 µM (inactive) and the GI50 (SK-MEL-2) was > 100 µM (inactive). For the same compound, the GI50 (SK-MEL-5) was 0.471 µM (active), the GI50 (SK-OV-3) was > 100 µM (inactive) and the GI50 (SN12C) was > 100 µM (inactive). For the same compound, the GI50 (SNB-19) was > 100 µM (inactive), the GI50 (SNB-75) was > 100 µM (inactive) and the GI50 (SW-620) was > 100 µM (inactive). For the same compound, the GI50 (TK-10) was > 100 µM (inactive), the GI50 (U-251) was > 100 µM (inactive) and the GI50 (UACC-257) was > 100 µM (inactive). The GI50 (UACC-62) was > 100 µM (inactive) and the GI50 (UO-31) was > 100 µM (inactive).
